Laboratory results reported in patent US6380181B1, “Synthetic catechol derivatives, method for production and use thereof” (priority 1996, dated 2002).
Values after ≈ are worked out from the molar mass of the structure shown. Like-named read-outs stand apart in the source and are kept apart here.

What was measured:
Type in all cases: cell-based
[1] = tested on: Pseudomonas aeruginosa SG 137 (carbenicillin-resistant); assay: Agar diffusion test; details: concentration 100 μg/ml, P. aeruginosa SG 137
[2] = tested on: Pseudomonas aeruginosa KW 799 WT (wild type); assay: Agar diffusion test; details: concentration 100 μg/ml, P. aeruginosa KW799/WT
[3] = tested on: Pseudomonas aeruginosa KW 799/61 (penetration mutant); details: P. aeruginosa KW799/61
[4] = tested on: E. coli DC2 (penetration mutant); details: concentration 100 μg/ml
[5] = tested on: E. coli DC0 (wild type); assay: Agar diffusion test; details: concentration 100 μg/ml
[6] = tested on: Stenotrophomonas maltophilia GN 12873; assay: Agar diffusion test; details: concentration 100 μg/ml
[7] = tested on: Salmonella gallinarum ATCC 9184; details: concentration 100 μg/ml, Salmonella galinarum ATCC 9184
[8] = tested on: E. coli ATCC 25922; assay: Microdilution test (MIC)
Experimental: (§1) The minimum inhibiting concentrations (MICs) were determined for the following bacterial strains: Pseudomonas aeruginosa NCTC 10701, NCTC 10662, SG 137, ATCC 27853, KW 799 WT and KW 799/61, E. coli DCO, DC2 and ATCC 25922, Serratia marcescens SG 621; Salmonella gallinarum ATCC 9184, Klebsiella pneumoniae ATCC 10031 and SG 117.

[9] = tested on: Klebsiella pneumoniae ATCC 10031; assay: Microdilution test (MIC)
Experimental: as §1

[10] = tested on: Pseudomonas aeruginosa NCTC 10662; assay: Microdilution test (MIC); details: P. aeruginosa NCTC 10662
Experimental: as §1

[11] = tested on: Pseudomonas aeruginosa SG 137; assay: Microdilution test (MIC); details: P. aeruginosa SG 137
Experimental: as §1

[12] = tested on: Serratia marcescens SG 621; assay: Microdilution test (MIC)
Experimental: as §1

[13] = tested on: Pseudomonas aeruginosa KW 799 WT; assay: Microdilution test (MIC); details: P. aeruginosa KW 799/WT
Experimental: as §1
(§2) With the test germs KW 799/WT and /61 of Pseudomonas and DCO and DC2 of E. coli, the effect of improved penetration capacity on the efficacy of the substances was investigated.

[14] = tested on: Pseudomonas aeruginosa KW 799/61; assay: Microdilution test (MIC)
Experimental: as §1, §2

[15] = tested on: E. coli DC2; assay: microbe, parasite or virus in culture
Experimental: as §1, §2

[16] = tested on: Stenotrophomonas maltophilia GN 12873; assay: Microdilution test (MIC)
[17] = tested on: E. coli DC0; assay: Microdilution test (MIC); details: E. coli DC0
Experimental: as §1, §2

[18] = tested on: Pseudomonas aeruginosa ATCC 27853 (wild type); assay: Agar diffusion test; details: concentration 100 μg/ml; P. aeruginosa ATCC 27853
[19] = tested on: Klebsiella pneumoniae ATCC 10031; assay: Agar diffusion test; details: concentration 100 μg/ml
[20] = tested on: Klebsiella pneumoniae SG 117; assay: Agar diffusion test; details: concentration 100 μg/ml
[21] = tested on: Pseudomonas aeruginosa ATCC 27853; assay: Microdilution test (MIC); details: P. aeruginosa ATCC 27853
Experimental: as §1

## COC(=O)Oc1cccc(C(=O)N2COC[C@H]2C(=O)N[C@@H](C(=O)N[C@@H]2C(=O)N3[C@@H]2SC(C)(C)[C@@H]3C(=O)O)c2ccccc2)c1OC(=O)OC [Substance 30, (S)-N-[3-(2,3-di-(Methoxycarbonyloxy)-benzoyl]-oxazolidin-4-oyl]-ampicillin]
[1]
  inhibition spot diameter in the agar diffusion test: 22 mm
[2]
  inhibition spot diameter in the agar diffusion test: 27 mm
[3]; concentration 100 μg/ml
  inhibition spot diameter in the agar diffusion test: 33 mm
[4]
  inhibition spot diameter in the agar diffusion test: 31 mm
[5]
  inhibition spot diameter in the agar diffusion test: 25 mm
[6]
  inhibition spot diameter in the agar diffusion test: 19 mm
[7]
  inhibition spot diameter in the agar diffusion test: 29 mm
[8]
  MIC values, microdilution test: 6.25 µg/mL (≈ 8.92 µM)
[9]
  MIC values, microdilution test: 6.25 µg/mL (≈ 8.92 µM)
[10]
  MIC values, microdilution test: 6.25 µg/mL (≈ 8.92 µM)
[11]
  MIC values, microdilution test: 0.4 µg/mL (≈ 0.571 µM)
[12]
  MIC values, microdilution test: 50 µg/mL (≈ 71.4 µM)
[13]
  MIC values, microdilution test: 0.78 µg/mL (≈ 1.11 µM)
[14]
  MIC values, microdilution test: 0.2 µg/mL (≈ 0.285 µM)
[15]
  MIC values, microdilution test: 0.4 µg/mL (≈ 0.571 µM)
[16]
  MIC values, microdilution test: 3.12 µg/mL (≈ 4.45 µM)

## CC(=O)Oc1cccc(C(=O)NCCCC[C@H](NC(=O)c2cccc(OC(C)=O)c2OC(C)=O)C(=O)N[C@@H](C(=O)N[C@@H]2C(=O)N3[C@@H]2SC(C)(C)[C@@H]3C(=O)O)c2ccccc2)c1OC(C)=O [Substance 31, N-[L-2,6-bis-(2,3-diacetoxybenzoylamino)-hexanoyl]-ampicillin]
[1]; listed as 31
  inhibition spot diameter in the agar diffusion test: 28 mm
[2]; listed as 31
  inhibition spot diameter in the agar diffusion test: 27 mm
[3]; concentration 100 μg/ml
  inhibition spot diameter in the agar diffusion test: 37 mm
[4]; listed as 31
  inhibition spot diameter in the agar diffusion test: 33 mm
[5]; listed as 31
  inhibition spot diameter in the agar diffusion test: 27 mm
[6]; listed as 31
  inhibition spot diameter in the agar diffusion test: 23 mm
[7]; listed as 31
  inhibition spot diameter in the agar diffusion test: 29 mm
[8]; listed as 31
  MIC values, microdilution test: 0.78 µg/mL (≈ 0.85 µM)
[9]
  MIC values, microdilution test: 0.4 µg/mL (≈ 0.436 µM)
[10]; listed as 31
  MIC values, microdilution test: 6.25 µg/mL (≈ 6.81 µM)
[11]
  MIC values, microdilution test: 0.1 µg/mL (≈ 0.109 µM)
[12]
  MIC values, microdilution test: 25 µg/mL (≈ 27.2 µM)
[17]
  MIC values, microdilution test: 12.5 µg/mL (≈ 13.6 µM)
[13]
  MIC values, microdilution test: 0.78 µg/mL (≈ 0.85 µM)
[14]
  MIC values, microdilution test: 0.2 µg/mL (≈ 0.218 µM)
[15]
  MIC values, microdilution test: 0.2 µg/mL (≈ 0.218 µM)
[16]; listed as 31
  MIC values, microdilution test: 0.4 µg/mL (≈ 0.436 µM)

## CC(=O)OC[C@H](NC(=O)c1cccc(OC(C)=O)c1OC(C)=O)C(=O)N[C@@H](C(=O)N[C@@H]1C(=O)N2[C@@H]1SC(C)(C)[C@@H]2C(=O)O)c1ccccc1 [Substance 32, N-[L-3-Acetoxy-2-(2,3-diacetoxybenzoylamino)-propionyl]-ampicillin]
[1]
  inhibition spot diameter in the agar diffusion test: 16 mm
[2]
  inhibition spot diameter in the agar diffusion test: 25 mm
[3]; concentration 100 μg/ml
  inhibition spot diameter in the agar diffusion test: 32 mm
[4]
  inhibition spot diameter in the agar diffusion test: 28 mm
[5]
  inhibition spot diameter in the agar diffusion test: 22 mm
[6]
  inhibition spot diameter in the agar diffusion test: 19 mm
[7]
  inhibition spot diameter in the agar diffusion test: 28 mm
[11]
  MIC values, microdilution test: 1.56 µg/mL (≈ 2.23 µM)
[12]
  MIC values, microdilution test: 25 µg/mL (≈ 35.8 µM)
[17]
  MIC values, microdilution test: 12.5 µg/mL (≈ 17.9 µM)
[13]
  MIC values, microdilution test: 1.56 µg/mL (≈ 2.23 µM)
[14]
  MIC values, microdilution test: 0.4 µg/mL (≈ 0.572 µM)

## CC(=O)Oc1cccc(C(=O)Nc2cc(NC(=O)c3cccc(OC(C)=O)c3OC(C)=O)cc(C(=O)N[C@@H](C(=O)N[C@@H]3C(=O)N4[C@@H]3SC(C)(C)[C@@H]4C(=O)O)c3ccccc3)c2)c1OC(C)=O [Substance 36, N-[3,5-bis-(2,3-diacetoxy-benzoylamino)-benzoyl]-ampicillin]
[1]
  inhibition spot diameter in the agar diffusion test: 25 mm
[2]
  inhibition spot diameter in the agar diffusion test: 25 mm
[3]; concentration 100 μg/ml
  inhibition spot diameter in the agar diffusion test: 29 mm
[18]
  inhibition spot diameter in the agar diffusion test: 19 mm
[4]
  inhibition spot diameter in the agar diffusion test: 19 mm
[5]
  inhibition spot diameter in the agar diffusion test: 13 mm
[19]
  inhibition spot diameter in the agar diffusion test: 17 mm
[20]
  inhibition spot diameter in the agar diffusion test: 16 mm
[6]
  inhibition spot diameter in the agar diffusion test: 24 mm
[7]
  inhibition spot diameter in the agar diffusion test: 23 mm
[8]
  MIC values, microdilution test: 25 µg/mL (≈ 27.1 µM)
[21]
  MIC values, microdilution test: 3.12 µg/mL (≈ 3.38 µM)
[10]
  MIC values, microdilution test: 6.25 µg/mL (≈ 6.76 µM)
[11]
  MIC values, microdilution test: 0.4 µg/mL (≈ 0.433 µM)
[16]
  MIC values, microdilution test: 1.56 µg/mL (≈ 1.69 µM)

## CC(=O)Oc1cccc(C(=O)NCCCC[C@H](NC(=O)c2cccc(OC(C)=O)c2OC(C)=O)C(=O)N[C@@H](C(=O)N[C@@H]2C(=O)N3[C@@H]2SC(C)(C)[C@@H]3C(=O)O)c2ccccc2)c1OC(C)=O [Substance Na-31, N-[L-2,6-bis-(2,3-diacetoxybenzoylamino)-hexanoyl]-ampicillin]
[1]; listed as Na-31
  inhibition spot diameter in the agar diffusion test: 31 mm
[2]; listed as Na-31
  inhibition spot diameter in the agar diffusion test: 31 mm
[3]; [ ] at 50 μg/ml
  inhibition spot diameter in the agar diffusion test: [38] mm
[18]
  inhibition spot diameter in the agar diffusion test: 24 mm
[4]; listed as Na-31
  inhibition spot diameter in the agar diffusion test: 38 mm
[5]; listed as Na-31
  inhibition spot diameter in the agar diffusion test: 28 mm
[19]
  inhibition spot diameter in the agar diffusion test: 21 mm
[20]
  inhibition spot diameter in the agar diffusion test: 26 mm
[6]; listed as Na-31
  inhibition spot diameter in the agar diffusion test: 29 mm
[7]; listed as Na-31
  inhibition spot diameter in the agar diffusion test: 34 mm
[8]; listed as Na-31
  MIC values, microdilution test: 0.2 µg/mL (≈ 0.218 µM)
[21]
  MIC values, microdilution test: 0.78 µg/mL (≈ 0.85 µM)
[10]; listed as Na-31
  MIC values, microdilution test: 0.78 µg/mL (≈ 0.85 µM)
[16]; listed as Na-31
  MIC values, microdilution test: 6.25 µg/mL (≈ 6.81 µM)

## CC(=O)Oc1cccc(C(=O)NCCCC[C@H](NC(=O)c2cccc(OC(C)=O)c2OC(C)=O)C(=O)N[C@@H](C(=O)N[C@@H]2C(=O)N3[C@@H]2SC(C)(C)[C@@H]3C(=O)O)c2ccc(O)cc2)c1OC(C)=O [Substance Na-35, N-[L-2,6-bis-(2,3-diacetoxy-benzoylamino)-hexanoyl)-amoxicillin]
[1]
  inhibition spot diameter in the agar diffusion test: 31 mm
[2]
  inhibition spot diameter in the agar diffusion test: 30 mm
[3]; [ ] at 50 μg/ml
  inhibition spot diameter in the agar diffusion test: [38] mm
[18]
  inhibition spot diameter in the agar diffusion test: 22 mm
[4]
  inhibition spot diameter in the agar diffusion test: 38 mm
[5]
  inhibition spot diameter in the agar diffusion test: 24 mm
[19]
  inhibition spot diameter in the agar diffusion test: 20 mm
[20]
  inhibition spot diameter in the agar diffusion test: 23 mm
[6]
  inhibition spot diameter in the agar diffusion test: 28 mm
[7]
  inhibition spot diameter in the agar diffusion test: 33 mm
[8]
  MIC values, microdilution test: 0.2 µg/mL (≈ 0.214 µM)
[21]
  MIC values, microdilution test: 1.56 µg/mL (≈ 1.67 µM)
[10]
  MIC values, microdilution test: 1.58 µg/mL (≈ 1.69 µM)
[11]
  MIC values, microdilution test: 0.1 µg/mL (≈ 0.107 µM)
[16]
  MIC values, microdilution test: 6.25 µg/mL (≈ 6.69 µM)

## COC(=O)Oc1cccc(C(=O)N(C)c2ccc(C(=O)N[C@@H](C(=O)N[C@@H]3C(=O)N4[C@@H]3SC(C)(C)[C@@H]4C(=O)O)c3ccccc3)cc2)c1OC(=O)OC [Substance Na-37, N-{4-[(2,3-di-methoxycarbonyloxy-benzoyl)-methyl-amino]-benzoyl}-ampicillin]
[1]
  inhibition spot diameter in the agar diffusion test: 22 mm
[2]
  inhibition spot diameter in the agar diffusion test: 28 mm
[3]; concentration 100 μg/ml
  inhibition spot diameter in the agar diffusion test: 35 mm
[18]
  inhibition spot diameter in the agar diffusion test: 21 mm
[4]
  inhibition spot diameter in the agar diffusion test: 33 mm
[5]
  inhibition spot diameter in the agar diffusion test: 27 mm
[19]
  inhibition spot diameter in the agar diffusion test: 22 mm
[20]
  inhibition spot diameter in the agar diffusion test: 19 mm
[6]
  inhibition spot diameter in the agar diffusion test: 16 mm
[7]
  inhibition spot diameter in the agar diffusion test: 29 mm
[8]
  MIC values, microdilution test: 3.12 µg/mL (≈ 4.25 µM)
[9]
  MIC values, microdilution test: 3.12 µg/mL (≈ 4.25 µM)
[21]
  MIC values, microdilution test: 3.12 µg/mL (≈ 4.25 µM)
[10]
  MIC values, microdilution test: 12.5 µg/mL (≈ 17 µM)
[11]
  MIC values, microdilution test: 0.4 µg/mL (≈ 0.544 µM)
[16]
  MIC values, microdilution test: 6.25 µg/mL (≈ 8.51 µM)
